Structures can show the parent of a compound that is named as a salt.

The subject of one experiment is HCT116 FOPFlash. The experiment can be described thus: Control reporter assay, HCT116 FOP control vector (non-functional TCF elements), luciferase expression. The settings on record: Homo sapiens, HCT116 FOP control reporter cells, 36 hours incubation, dilution series 50 μM to 15 nM. In kind it is cell-based. The procedure, abridged:
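Stable HCT116 cells carrying FOP vector (randomized non-functional TCF sites) plus pcDNA3, run in parallel with TOP line; compounds 50 μM to 15 nM (3.16-fold steps) added in CAFTY buffer pH 7.4 with 2 mM Ca2+, 0.01% BSA. Incubated 36 h at 37 °C, 5% CO2; luciferase luminescence read.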

Experiment [1] has as its system constitutive active colorectal cancer cell (CRC) Wnt pathway, HCT116 TOPFlash. Description: Cellular reporter assay, HCT116 Super TopFlash (constitutive active Wnt pathway), luciferase expression. In kind it is cell-based. The settings on record: HCT116 Super TopFlash reporter cells, 36 hours incubation, dilution series 50 μM to 15 nM. The procedure, abridged:
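HCT116 cells stably carrying Super TopFlash (β-catenin ΔS45, constitutive Wnt) run in parallel with FOP control line; compounds 50 μM to 15 nM (3.16-fold) in CAFTY buffer pH 7.4 with 2 mM Ca2+, 0.01% BSA, 36 h at 37 °C. Luciferase luminescence read as Wnt activity.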

`O=C(Nc1nnc(-c2cccnc2)s1)c1ccc(Cl)c(NC(=O)C2(N3CCN(C4CC4)CC3)CC2)c1` [Example 85, 4-chloro-3-({[1-(4-cyclopropylpiperazin-1-yl)cyclopropyl]carbonyl}amino)-N-[5-(pyridin-3-yl)-1,3,4-thiadiazol-2-yl]benzamide]: the IC50 is at least 50 µM in the experiment on HCT116 FOPFlash (HCT-116, 36 h) and 12.5 µM in experiment [1] (Homo sapiens, HCT-116, 36 h).

In the case of `O=C(CN1CCOCC1)Nc1cc(C(=O)Nc2nnc(-c3ccccn3)s2)ccc1OC(F)(F)F` [Example 80, 3-[{morpholin-4-ylacetyl)amino]-N-[5-(pyridin-2-yl)-1,3,4-thiadiazol-2-yl]-4-(trifluoromethoxy)benzamide], the IC50 is at least 50 µM with HCT116 FOPFlash (HCT-116, 36 h) and 27.5 µM in experiment [1] (Homo sapiens, HCT-116, 36 h).

In the case of `Cc1nccnc1-c1nnc(NC(=O)c2ccc(OC(F)(F)F)c(NC(=O)CN3CCN(C)CC3)c2)s1` [Example 41, 1-methyl-4-(2-{[5-{[5-(3-methylpyrazin-2-yl)-1,3,4-thiadiazol-2-yl]carbamoyl}-2-(trifluoromethoxy)phenyl]amino}-2-oxoethyl)piperazin-1-ium hexafluorophosphate], the IC50 in the experiment on HCT116 FOPFlash (HCT-116) was at least 50 µM; in experiment [1] (Homo sapiens, HCT-116), 0.86 µM.

As to `CN1CCN(CC(=O)Nc2cc(C(=O)Nc3nnc(-c4ccncc4)s3)ccc2OC(F)(F)F)CC1` [Example 83, 3-{[(4-methylpiperazin-1-yl)acetyl]amino}-N-[5-(pyridin-4-yl)-1,3,4-thiadiazol-2-yl]-4-(trifluoromethoxy)benzamide], the IC50 in the experiment on HCT116 FOPFlash (HCT-116, 36 h) was at least 50 µM; in experiment [1] (Homo sapiens, HCT-116, 36 h), 26.3 µM.

Turning to `CN1CCN(CC(=O)Nc2cc(C(=O)Nc3ccc(-c4cccnc4)cn3)ccc2OC(F)(F)F)CC1` [Example 11, N-(3,3′-bipyridin-6-yl)-3-{[(4-methylpiperazin-1-yl)acetyl]amino}-4-(trifluoromethoxy)benzamide], the IC50 in the experiment with HCT116 FOPFlash (HCT-116, 36 h) is at least 50 µM; in experiment [1] (Homo sapiens, HCT-116, 36 h), 0.0188 µM.

For the compound `CN1CCN(CC(=O)Nc2cc(C(=O)Nc3nnc(-c4cnccn4)s3)ccc2OC2CC2)CC1` [Example 60, 4-(cyclopropyloxy)-3-{[(4-methylpiperazin-1-yl)acetyl]amino}-N-[5-(pyrazin-2-yl)-1,3,4-thiadiazol-2-yl]benzamide], the half-inhibitory concentration (IC50) is at least 50 µM in the experiment on HCT116 FOPFlash (HCT-116, 36 h) and 4.4 µM in experiment [1] (Homo sapiens, HCT-116, 36 h).

With `Cc1cncc(-c2nnc(NC(=O)c3ccc(OC(F)(F)F)c(NC(=O)CN4CCN(C)CC4)c3)s2)c1` [Example 39, 1-methyl-4-(2-{[5-{[5-(5-methylpyridin-3-yl)-1,3,4-thiadiazol-2-yl]carbamoyl}-2-(trifluoromethoxy)phenyl]amino}-2-oxoethyl)piperazin-1-ium hexafluorophosphate], the IC50 in the experiment with HCT116 FOPFlash (HCT-116) is at least 50 µM; in experiment [1] (Homo sapiens, HCT-116) it was 0.0858 µM.

Regarding `CC(C(=O)Nc1cc(C(=O)Nc2ccc(-c3cncnc3)nc2)ccc1OC(F)(F)F)N1CCOCC1` (centres unmarked) [Example 4, 3-{[2-(morpholin-4-yl)propanoyl]amino}-N-[6-(pyrimidin-5-yl)pyridin-3-yl]-4-(trifluoromethoxy)benzamide], the IC50 in the experiment with HCT116 FOPFlash (HCT-116, 36 h) is at least 50 µM; in experiment [1] (Homo sapiens, HCT-116, 36 h), 0.0195 µM.

In the case of `CN1CCN(C2(C(=O)Nc3cc(C(=O)Nc4nnc(-c5cccnc5)s4)ccc3Cl)CC2)CC1` [Example 26, 4-chloro-3-({[1-(4-methylpiperazin-1-yl)cyclopropyl]carbonyl}amino)-N-[5-(pyridin-3-yl)-1,3,4-thiadiazol-2-yl]benzamide], the IC50 with HCT116 FOPFlash (HCT-116, 36 h) was at least 50 µM; in experiment [1] (Homo sapiens, HCT-116, 36 h), 0.5 µM.

Regarding `CN1CCN(C2(C(=O)Nc3cc(C(=O)Nc4nnc(-c5cccnc5)s4)ccc3OC(F)(F)F)CC2)CC1` [Example 19, 3-({[1-(4-methylpiperazin-1-yl)cyclopropyl]carbonyl}amino)-N-[5-(pyridin-3-yl)-1,3,4-thiadiazol-2-yl]-4-(trifluoromethoxy)benzamide hydrochloride], the IC50 with HCT116 FOPFlash (HCT-116, 36 h) was at least 50 µM; in experiment [1] (Homo sapiens, HCT-116, 36 h) it was 0.105 µM.

As to `O=C(CN1CCOCC1)Nc1cc(C(=O)Nc2ccc(-c3cccnc3F)cn2)ccc1OC(F)(F)F` [Example 16, N-(2′-fluoro-3,3′-bipyridin-6-yl)-3-[(morpholin-4-ylacetyl)amino]-4-(trifluoromethoxy)benzamide], the IC50 in the experiment on HCT116 FOPFlash (HCT-116, 36 h) was at least 50 µM; in experiment [1] (Homo sapiens, HCT-116, 36 h), 0.103 µM.

As for `CN1CCN(C2(C(=O)Nc3cc(C(=O)Nc4nnc(-c5cnc(N)nc5)s4)ccc3OC(F)(F)F)CC2)CC1` [Example 32, N-[5-(2-aminopyrimidin-5-yl)-1,3,4-thiadiazol-2-yl]-3-({[1-(4-methylpiperazin-1-yl)cyclopropyl]carbonyl}amino)-4-(trifluoromethoxy)benzamide], the IC50 in the experiment with HCT116 FOPFlash (HCT-116, 36 h) was at least 50 µM; in experiment [1] (Homo sapiens, HCT-116, 36 h), 0.128 µM.

As for `Cc1csc(-c2nnc(NC(=O)c3ccc(OC(F)(F)F)c(NC(=O)CN4CCOCC4)c3)s2)n1` [Example 92, N-[5-(4-methyl-1,3-thiazol-2-yl)-1,3,4-thiadiazol-2-yl]-3-[(morpholin-4-ylacetyl)amino]-4-(trifluoromethoxy)benzamide], the IC50 is at least 50 µM in the experiment on HCT116 FOPFlash (HCT-116, 36 h) and 21.2 µM in experiment [1] (Homo sapiens, HCT-116, 36 h).

For the compound `Cc1cncc(-c2nnc(NC(=O)c3ccc(OC(F)(F)F)c(NC(=O)CN4CCN(C)CC4)c3)s2)n1` [Example 102, 3-{[(4-methylpiperazin-1-yl)acetyl]amino}-N-[5-(6-methylpyrazin-2-yl)-1,3,4-thiadiazol-2-yl]-4-(trifluoromethoxy)benzamide], the IC50 was at least 50 µM with HCT116 FOPFlash (HCT-116, 36 h) and 0.18 µM in experiment [1] (Homo sapiens, HCT-116, 36 h).

Consider `Cc1ccncc1-c1nnc(NC(=O)c2ccc(OC(F)(F)F)c(NC(=O)CN3CCN(C)CC3)c2)s1` [Example 36, 3-{[(4-methylpiperazin-1-yl)acetyl]amino}-N-[5-(4-methylpyridin-3-yl)-1,3,4-thiadiazol-2-yl]-4-(trifluoromethoxy)benzamide hydrochloride (1:1)], for which the IC50 in the experiment on HCT116 FOPFlash (HCT-116, 36 h) is at least 50 µM; in experiment [1], 0.06 µM.

For the compound `CN1CCN(CC(=O)Nc2cc(C(=O)Nc3nnc(-c4cnccc4F)s3)ccc2OC(F)(F)F)CC1` [Example 109, N-[5-(4-fluoropyridin-3-yl)-1,3,4-thiadiazol-2-yl]-3-{[(4-methylpiperazin-1-yl)acetyl]amino}-4-(trifluoromethoxy}benzamide], the IC50 with HCT116 FOPFlash (HCT-116, 36 h) was at least 50 µM; in experiment [1] (Homo sapiens, HCT-116, 36 h) it was 32 µM.

Turning to `CC(C(=O)Nc1cc(C(=O)Nc2ccc(-c3cccnc3)nc2)ccc1OC(F)(F)F)N1CCOCC1` (centres unmarked) [Example 8, N-(2,3′-bipyridin-5-yl)-3-{[2-(morpholin-4-yl)propanoyl]amino}-4-(trifluoromethoxy)benzamide], the IC50 in the experiment with HCT116 FOPFlash (HCT-116, 36 h) is at least 50 µM; in experiment [1] (Homo sapiens, HCT-116, 36 h) it was 0.0116 µM.

`O=C(Nc1nnc(-c2cccnc2)s1)c1ccc(OC(F)(F)F)c(NC(=O)C2(N3CCOCC3)CC2)c1` [Example 2, 3-({[1-(morpholin-4-yl)cyclopropyl]carbonyl}amino)-N-[5-(pyridin-3-yl)-1,3,4-thiadiazol-2-yl]-4-(trifluoromethoxy)benzamide]: the IC50 with HCT116 FOPFlash (HCT-116, 36 h) is at least 50 µM; in experiment [1] (Homo sapiens, HCT-116, 36 h) it was 0.282 µM.

As for `CN1CCN(CC(=O)Nc2cc(C(=O)Nc3nnc(-c4ccccn4)s3)ccc2OC(F)(F)F)CC1` [Example 9, 3-{[(4-methylpiperazin-1-yl)acetyl]amino}-N-[5-(pyridin-2-yl)-1,3,4-thiadiazol-2-yl]-4-(trifluoromethoxy)benzamide hydrochloride], the IC50 stood at 22.5 µM in the experiment on HCT116 FOPFlash (HCT-116, 36 h) and 0.514 µM in experiment [1] (Homo sapiens, HCT-116, 36 h).

For the origin of these results see patent publication US20170107212A1, “NOVEL COMPOUNDS” (Bayer Pharma Aktiengesellschaft, priority 2014, published 2017).
